Reference: US20030109486A1 (priority 2001, published 2003)
“Also recorded” adds a separate entry of the source. Read-outs that look alike come from different tables or passages of the source.

What was measured:
[1] = Solubility in isotonic aqueous solutions of sodium chloride; conditions: salts
[2] = cited from earlier work
[3] = of seven children; infused directly into the pulmonary artery for 30 minutes to 30 hours; cited from earlier work
[4] = intramuscular; cited from earlier work
[5] = Cells/Organ; cited from earlier work
[6] = Patients; cited from earlier work
[7] = infusions; rat kidney, rat lung, dog heart, rabbit lung, rat gut; cited from earlier work
[8] = single arm study; cited from earlier work
Tumor [9] = conditions: Patients; cited from earlier work
[10] = Animals; cited from earlier work
[11] = Patients; cited from earlier work; remark: listed apart in the source
[12] = intravenous, cited from earlier work
[13] = tested on: non-small cell lung cancer; conditions: cited from earlier work
[14] = Patients; cited from earlier work; remark: listed apart in the source
Tumor [15] = conditions: Cells/Organ; cited from earlier work
[16] = in vivo; cited from earlier work
Airway mucosa [17] = conditions: Cells/Organ; cited from earlier work
[18] = intravenous; cited from earlier work
Airway mucosa [19] = conditions: Patients, cited from earlier work; for Mucociliary clearance: epithelia of cystic fibrosis patients; for Chloride secretion: observed in epithelia of healthy participants and cystic fibrosis patients
SA + AV node = conditions: Cells/Organ; cited from earlier work
[20] = Stability of ATP solutions; type: physicochemical
Method: An example of a clinical procedure in the treatment of ALI and ARDS is as follows. After determination of baseline, pre-treatment hemodynamic variables, blood gases and pH values, an ATP dose escalation procedure is initiated. ATP is provided as a sterile solution in single use vials. […] Storage of the clinical solution is at controlled refrigerated temperature (2° C.-8° C. ). […] The concentration of the final sterile solution for the infusion is 8 mg/ml.
The product must be stored at controlled refrigerated temperature (2° C.-[…]). At pH 6.7-7.2, the sodium salt in aqueous solution is stable.

[21] = cited from earlier work; remark: listed apart in the source
[22] = cited from earlier work; for whole blood ATP concentration, higher than the pretreatment values: 24 hr of infusion, average
[23] = low doses, intravenous; cited from earlier work
[24] = cited from earlier work; remark: listed apart in the source
[25] = Patients; cited from earlier work; remark: listed apart in the source
Tumor [26] = conditions: Animals; cited from earlier work
[27] = Cells/Organ; cited from earlier work; remark: listed apart in the source
[28] = Animals; cited from earlier work; remark: listed apart in the source
[29] = Animals; cited from earlier work; remark: listed apart in the source
[30] = tested on: tissue type plasminogen activator (tPA); conditions: infusions in humans; cited from earlier work
[31] = administration directly into the pulmonary artery or into the superior vena cava
[32] = healthy individuals, COPD patients, patients after surgical repair of congenital heart defects
[33] = ATP infusion rate 500-1000 μg/kg/min
[34] = ATP infusion rate ≦100 μg/kg/min
[35] = 50 or 65 microgram/kg/min for 96 hr, once every 4 weeks

SMILES: Nc1ncnc2c1ncn2[C@@H]1O[C@H](COP(=O)(O)OP(=O)(O)O)[C@@H](O)[C@H]1O [ADP, adenosine 5′-diphosphate]
- solubility in isotonic aqueous solutions of sodium chloride [1]: high solubility

SMILES: Nc1ncnc2c1ncn2[C@@H]1O[C@H](COP(=O)(O)O)[C@@H](O)[C@H]1O [AMP, adenosine 5′-monophosphate]
- solubility in isotonic aqueous solutions of sodium chloride [1]: high solubility

SMILES: Nc1ncnc2c1ncn2[C@@H]1O[C@H](COP(=O)(O)OP(=O)(O)OP(=O)(O)O)[C@@H](O)[C@H]1O [ATP, adenosine 5′-triphosphate]
- Pulmonary Arterial Pressure [2, 31]: reducing
- Pulmonary Vascular Resistance [2, 31]: reducing
- Systemic Arterial Pressure [2, 31]: without any direct effect
- Systemic Vascular Resistance [2, 31]: without any direct effect
- Pulmonary Arterial Pressure [2, 32]: significantly decreasing
- Pulmonary Vascular Resistance [2, 32]: significantly decreasing
- children in whom hypertension crises were completely resolved and hemodynamic stability restored [3]: 4 children
- protecting the intestinal mucosal structure and function [4]: effective
- Shock: Organ function [5]: Improved
- Pulmonary hypertension [6]: Reduced
- tissue injury during reperfusion after a preceding period of ischemia [7]: protective effects
- several metabolic functions [8]: beneficial
- Cancer treatment: Weight loss (Tumor [9]): Inhibited
- Tumor growth (Tumor [9]): Inhibited
- Shock: Organ function [10]: Improved
- Shock: Survival rate [10]: Increased
- Anaesthetic requirement [11]: Reduced
- Blood pressure during surgery [11]: Reduced
- Opioid requirement after surgery [11]: Reduced
- Pain [11]: Reduced
- Cardiac Output [12, 33]: Increase
- Heart Rate [12, 33]: Increase
- Pulmonary Arterial Pressure [12, 33]: Decrease
- Pulmonary Vascular Resistance [12, 33]: Decrease
- Systemic Arterial Pressure [12, 33]: Decrease
- Systemic Vascular Resistance [12, 33]: Decrease
- Cardiac Output [12, 34]: Small Increase
- Heart Rate [12, 34]: No Change
- Pulmonary Arterial Pressure [12, 34]: Decrease
- Pulmonary Vascular Resistance [12, 34]: Decrease
- Systemic Arterial Pressure [12, 34]: did not alter; also recorded: No Change
- Systemic Vascular Resistance [12, 34]: Small Decrease
- hematologic, renal, hepatic, or gastrointestinal toxicity [13, 35]: No significant
- patients exhibiting stable disease after treatment [13, 35]: majority of patients
- tumor shrinking [13, 35]: no significant
- overall survival ([13]; as compared with historical data): beneficial effects
- patient performance status ([13]; in vivo): beneficial effects
- weight gain ([13]; in vivo): beneficial effects
- SA + AV node conduction [14]: Inhibited
- Supraventricular tachycardias [14]: Inhibited
- Chemotherapy efficacy (Tumor [15]): Increased
- Radiotherapy damage (Tumor [15]): Reduced
- Radiotherapy efficacy (Tumor [15]): Increased
- Tumor growth (Tumor [15]): Inhibited
- survival [16]: significant positive effects
- Chloride secretion (Airway mucosa [17]): Increased
- Ciliary beat frequency (Airway mucosa [17]): Increased
- Mucus secretion (Airway mucosa [17]): Increased
- Surfactant secretion (Airway mucosa [17]): Increased
- Water secretion (Airway mucosa [17]): Increased
- Cardiac Output [18]: enhances
- portal and total hepatic blood flow [18]: enhances
- renal and hepatic microcirculation [18]: enhances
- Mucociliary clearance (Airway mucosa [19]): Increased
- Chloride secretion (Airway mucosa [19]): Increased
- SA + AV node conduction (SA + AV node): Inhibited
- stability of the final ATP solutions at room temperature ([20]; final infusion solution 8 mg/ml in 0.5 normal saline, room temperature): at least 96 hours
- stability of the sodium salt in aqueous solution ([20]; pH 6.7-7.2): stable
- severity of adverse experiences ([21]; 30-hr infusions, 20 up to 75 microgram/kg/min): generally mild
- Quality of Life domains ([21]; in vivo): improvements
- body weight ([21]; in vivo): beneficial effects
- electrocardiograms in patients with chest discomfort ([21]; in vivo): did not exhibit changes suggestive of myocardial ischemia
- time to resolution of all side effects after lowering the rate of ATP infusion ([21]; in vivo): within minutes
- voluntary muscle strength ([21]; in vivo): beneficial effects
- whole blood ATP concentration, higher than the pretreatment values ([22]; 50 microgram/kg/min): 63%
- whole blood ATP concentration, higher than the pretreatment values ([22]; 75 microgram/kg/min): 67%
- whole blood ATP concentration, higher than the pretreatment values ([22]; 100 microgram/kg/min): 113%
- blood concentrations of ATP between 24 and 96 hr of the infusion ([22]; in vivo): relatively constant or slightly declined
- resolving pulmonary hypertension [23]: effective
- maximum tolerated dose ([24]; 96-hr infusions, advanced non-small cell lung cancer): 50 microgram/kg/min
- highest dose easily tolerated ([24]; patients suffering from other cancers): 100 microgram/kg/min
- Shock: Survival rate [25]: Increased
- Cancer treatment: Weight loss (Tumor [26]): Inhibited
- Chemotherapy efficacy (Tumor [26]): Increased
- Radiotherapy damage (Tumor [26]): Reduced
- Radiotherapy efficacy (Tumor [26]): Increased
- Radiotherapy survival rate (Tumor [26]): Increased
- Tumor growth (Tumor [26]): Inhibited
- Glycogenolysis [27]: Increased
- Anaesthetic requirement [28]: Reduced
- Pain [28]: Reduced
- Pulmonary hypertension [29]: Reduced
- release of tissue-type plasminogen activator (tPA) [30]: profound acute release; also recorded: marked release

SMILES: Nc1ncnc2c1ncn2[C@@H]1O[C@H](CO)[C@@H](O)[C@H]1O [adenosine, reference compound]
- Cancer treatment: Weight loss (Tumor [9]): Inhibited
- Tumor growth (Tumor [9]): Inhibited
- Chemotherapy efficacy (Tumor [15]): Increased
- Radiotherapy damage (Tumor [15]): Reduced
- Radiotherapy efficacy (Tumor [15]): Increased
- Tumor growth (Tumor [15]): Inhibited
- solubility in isotonic aqueous solutions of sodium chloride [1]: high solubility
- Chloride secretion (Airway mucosa [17]): Increased
- Ciliary beat frequency (Airway mucosa [17]): Increased
- Mucus secretion (Airway mucosa [17]): Increased
- Surfactant secretion (Airway mucosa [17]): Increased
- Water secretion (Airway mucosa [17]): Increased
- Mucociliary clearance (Airway mucosa [19]): Increased
- Chloride secretion (Airway mucosa [19]): Increased
- SA + AV node conduction (SA + AV node): Inhibited
- Cancer treatment: Weight loss (Tumor [26]): Inhibited
- Chemotherapy efficacy (Tumor [26]): Increased
- Radiotherapy damage (Tumor [26]): Reduced
- Radiotherapy efficacy (Tumor [26]): Increased
- Radiotherapy survival rate (Tumor [26]): Increased
- Tumor growth (Tumor [26]): Inhibited
